# Laboratory results published in patent US6037351A, “Method of inhibiting hepatitis B virus” (priority 1996, dated 2000).
# Key:
# HIV = conditions: read-out: EC50 for inhibition of HIV replication; cited from earlier work
# hepatitis B virus (HBV) [1] = experiment: Secretion of HBV particles from HepG 2.2.15 and HBV infected HepG2 cells; format: cell-based, HBV in human hepatoma cells
# SHBs (S) antigen = experiment: ELISA of SHBs (S) antigen in unfractionated culture medium of 2.2.15 cells; format: cell-based, HBV
# Description: FIG. 3D: Histogram of the area under the averaged peaks of the densitometric tracing of the gel in FIG. 3B. […] Equal volumes of the indicated samples were tested for HBV envelope antigens using the enzyme-linked imminosorbent assay (ELISA) method. Samples of unfractionated medium (FIGS. 4A, 4B and 4C) or partially purified virus (FIGS. 4D, 4E and 4F) from 3-day cultures were tested for HBV SHBs ("S) (FIGS. 4A and 4D), LHBs: "PreS1" (FIGS. 4B and 4E) or MHBs "PreS2" (FIGS. 4C and 4F) epitopes. Cultures were maintained in the indicated concentrations of NBDNJ, expressed in millimolar units and shown along the X axis.
# Detection of HBV proteins by the Enzyme Linked Immunoabsorbant assay (ELISA).
# Monoclonal antibodies used herein are well-known and are described by Heerman et al., J. Virol. […]
# Bound antigen was detected by incubation with peroxidase conjugated goat anti-HBs antibody (Behring) followed by development in orthophenylenediamine (0.33 mg/ml PBS-peroxide solution). Optical densities were read in a Behring plate reader. Tests on purified virus and total medium were conducted over a series of sample dilutions to insure proper quantification.
# To distinguish between these possibilities, the amount and nature of envelope antigens in the culture medium was determined by both ELISA and Western analysis. […]
# hepatitis B virus (HBV) [2] = experiment: HBV DNA from virions secreted into medium of 2.2.15 cells (Southern blot, densitometry); format: cell-based, HBV in human hepatoma HepG 2.2.15 cells; conditions: six days
# Description: HepG 2.2.15 cells were grown for 6 days in the presence of the indicated concentration of NBDNJ with one change of medium. After the sixth day (seventh day in culture), cells and medium were collected. Autoradiograms of the viral DNA detected by hybridization of membranes to HBV probes are shown.
# FIG. 2A: autoradiogram of a Southern blot of DNA recovered from the medium of 2.2.15 cells maintained in medium without NBDNJ (lanes 1 and 2); and in the following NBDNJ concentrations: 200 μg/ml (lane 3); 500 μg/ml (lane 4); and 1000 μg/ml (lane 5).
# HepG2 cells were purchased from the European Collection of Animal Cell Cultures (Porton Down, UK). HepG2 2.15 [2.2.15, Sells and Chen, Proc. Natl. Acad. Sci. USA 84, 1005-1009 (1987)] cells were obtained from Dr. George Acs (Mt. Sinai Medical College, New York, USA).
# All tissue cultures were maintained in 5% C02 in RPMI 1640 (GIBCO) medium, supplemented with 10% heat inactivated fetal calf serum (Techgen, London, U.K.), 50 units/ml. of penicillin and streptomycin, 1 mM glutamine (GIBCO). For 2.2.15 cells, 200 μgs/ml. Antibiotic G418 (Genticin, GIBCO) was added to the medium, as in Sells and Chen, Proc. Natl. Acad. Sci. USA 84, 1005-1009 (1987).
# Medium from approximately 5×10^6 cells was precipitated with polyethylene glycol (PEG) 8000 (Sigma), after clarification, as in Sells and Chen, Proc. Natl. Acad. Sci. USA 84, 1005-1009 (1987), re-suspended in 0.5 ml. phosphate buffered saline (PBS) and sedimented through a cushion of 20% sucrose in PBS for 5 hours at 50,000 rpm in a Beckman T100.3 rotor (approx. 75,000×g).
# DNA was prepared from the pellets as in Sells and Chen, Proc. Natl. Acad. Sci. USA 84, 1005-1009 (1987). […]
# [3] = Viability of 2.2.15 cells (propidium iodide FACS, 35S methionine incorporation); format: cell-based; conditions: human, 1000 μg/ml, six days, read-out: cells as viable as untreated controls
# Description: Cell viability was measured by flow cytometry using a FACscan cytometer, Becton Dickinson, Sunnyvale, Calif., USA, after incubation with propidium iodide, as in Platt and Jacob, Eur. J. Biochem. 208, 187-193 (1992).
# The decrease was not due to toxicity of NBDNJ, since 90% of the cells maintained in 1000 μgs/ml NBDNJ for six days were as viable as untreated controls, as determined by FACs analysis of propidium iodide stained cells and ^[35] -S methionine incorporation into proteins.
# [4] = stably transfected HepG 2.2.15 cells and HBV infected HepG2 cells
smiles,measurement,setting,value
"CCCCN1C[C@H](O)[C@@H](O)[C@H](O)[C@H]1CO [NBDNJ, N-butyl-1,5-dideoxy-1,5-imino-D-glucitol]",EC50,HIV,43 µM
same,sensitivity of HBV virions and particles containing LHBs and MHBs vs SHBs enriched particles,hepatitis B virus (HBV) [1]; relative to small SHBs enriched particles,more sensitive
same,intracellular retention of HBV DNA (in words),hepatitis B virus (HBV) [1]; [4],cause intracellular retention of HBV DNA
same,secretion of HBV particles (in words),hepatitis B virus (HBV) [1]; [4],suppress the secretion of HBV particles
same,effect upon total amount of SHBs (S) antigen in medium,SHBs (S) antigen,no significant effect
same,inhibition at 500 µg/mL,"hepatitis B virus (HBV) [2]; Hepatitis B virus, 144 h, NBDNJ 500 μg/ml (2.28 mM), densitometry of FIG. 2A, read-out: decrease in virus specific DNA in medium",90%
same,inhibition at 1000 µg/mL,"hepatitis B virus (HBV) [2]; Hepatitis B virus, 144 h, NBDNJ 1000 μg/ml, densitometry of FIG. 2A, read-out: decrease in virus specific DNA in medium",99%
same,virus specific DNA obtained from the media of treated cells (in words),"hepatitis B virus (HBV) [2]; NBDNJ 200, 500, 1000 μg/ml",clear dose-dependent decrease
same,viability at 144 h,[3],90%
